Legend:
Bel-7402 [1] = test: In vitro antitumor activity of concentration of 10-3 mol.L-1 against BEL-7402 cell line using MTT assay; type: functional, Homo sapiens; details: for inhibition: Homo sapiens
HXO-RB44 cell line [2] = test: In vitro antitumor activity of concentration of 10-6 mol.L-1 against HXO-RB44 cell line using MTT assay; type: functional, Homo sapiens; details: for inhibition: Homo sapiens
Bel-7402 [3] = test: In vitro antitumor activity of compound at a concentration 10-4 mol.L-1 against BEL-7402 cell line using MTT assay; type: functional, Homo sapiens; details: for inhibition: Homo sapiens
HXO-RB44 cell line [4] = test: In vitro antitumor activity of concentration of 10-4 mol.L-1 against HXO-RB44 cell line using MTT assay; type: functional, Homo sapiens; details: for inhibition: Homo sapiens
HXO-RB44 cell line [5] = test: In vitro antitumor activity of concentration of 10-5 mol.L-1 against HXO-RB44 cell line using MTT assay; type: functional, Homo sapiens; details: for inhibition: Homo sapiens
Bel-7402 [6] = test: In vitro antitumor activity of compound at a […] mol.L-1 against BEL-7402 cell line using MTT assay; type: functional, cell-based; details: Homo sapiens

Row | Compound | Inhibition (Bel-7402 [1]) [%] | Inhibition (HXO-RB44 cell line [2]) [%] | Inhibition (Bel-7402 [3]) [%] | Inhibition (HXO-RB44 cell line [4]) [%] | Inhibition (HXO-RB44 cell line [5]) [%] | inhibition (Bel-7402 [1]) [%] | inhibition (Bel-7402 [6]) [%] | inhibition (HXO-RB44 cell line [2]) [%] | inhibition (Bel-7402 [3]) [%] | inhibition (HXO-RB44 cell line [4]) [%] | inhibition (HXO-RB44 cell line [5]) [%]
1 | OC1CNCCNCCNC1 | 34 | 1 | 16 | 3 | 3 | – | – | – | – | – | –
2 | COPPER | – | – | – | – | – | 81 | 2 | 0 | 3 | 5 | 3
3 | [1,4,7]Triazecan-9-ol copper complex | – | – | – | – | – | 97 | 11 | 2 | 47 | 64 | 13

Reference: ChEMBL document CHEMBL1136124, “Copper complex of hydroxyl-substituted triazamacrocyclic ligand and its antitumor activity” (2003)
